Experimental findings from ChEMBL document CHEMBL1201862, “PubChem BioAssay data set” (2004) are described below.

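Values below derive from 48-hour exposures of cells grown in 96-well plates, with endpoints linearly interpolated between the two concentrations bracketing the appropriate inhibition level. The concentration for 50% growth inhibition is given as GI50.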 Calls of active or inactive are those of the source. Rule as the data show it: active = GI50 up to about 1.1 µM and inactive = higher. A value given as a limit tells only on which side of the number the result lay.

Test in all cases: growth of human tumour cells (NCI), 48 h
Test [1] has as its system Malme-3M.
In test [2] the test system is U-251.
Test [3] deals with SK-OV-3.
In test [4] the test system is SK-MEL-2.
In test [5] the test system is SW-620.
Test [6] concerns NCI-H460.
The test system of test [7] is SNB-19.
Test [8] has as its system RPMI-8226.
Test [9] relates to IGROV-1.
For test [10], the system named is HOP-62.
Test [11] concerns LOX IMVI.
The test system of test [12] is K562.
Test [13] has as its system OVCAR-8.
Test [14] relates to HOP-92.
For test [15], the system named is HT-29.
The subject of test [16] is A549.

Regarding `Cc1ccc(NC(=O)C(=O)CC(=O)c2c(C)[n+]([O-])c3ccccc3[n+]2[O-])cc1C`, the GI50 in [1] is > 100 µM (inactive); in [2], > 100 µM (inactive); in [3] it was > 100 µM (inactive); in [4], > 100 µM (inactive); in [5], 49.4 µM (inactive); in [6], 83 µM (inactive). In addition, the GI50 in [7] is 47.3 µM (inactive); in test [8] it was > 100 µM (inactive); in [9], > 100 µM (inactive); in test [10] it was > 100 µM (inactive); in test [11] it was > 100 µM (inactive); in test [12], > 100 µM (inactive). Also, the GI50 in test [13], in test [14], in test [15] and in test [16] was > 100 µM (inactive) in each case.

Regarding `CC1=C(C(=O)Nc2c(C)cccc2C)C(c2ccccc2Cl)C(C(=O)Nc2c(C)cccc2C)=C(C)N1`, the GI50 in [1], in test [2], in test [3], in test [4], in [5] and in [6] was > 100 µM (inactive) in each case. For the same compound, the GI50 in test [7], in test [8], in [9], in test [10], in [11] and in test [12] was > 100 µM (inactive) each time. For the same compound, the GI50 in test [13], in test [14], in test [15] and in test [16] was > 100 µM (inactive) each time.

`CC12CCCCC1(C)C2Sc1ccccc1` (centres undefined): the GI50 in [1] was 63 µM (inactive); in test [2], 32.3 µM (inactive); in test [3] it was > 100 µM (inactive); in [4], 23.4 µM (inactive); in [5] it was 42.8 µM (inactive); in [6] it was > 68.4 µM (inactive). The GI50 in test [7] is 38.5 µM (inactive); in test [8] it was 18.4 µM (inactive); in [9] it was > 81.7 µM (inactive); in test [10], > 100 µM (inactive); in test [11], 29.9 µM (inactive); in test [12] it was 13.5 µM (inactive). Moreover, the GI50 in test [13] was 42 µM (inactive); in test [14] it was 26.7 µM (inactive); in test [15] it was 37.2 µM (inactive); in test [16], 43.6 µM (inactive).

For the compound `ClC(Cl)[Si]12OCCN(CCO1)CCO2`, the GI50 in [1], in test [2], in test [3], in test [4], in test [5] and in test [6] was > 100 µM (inactive) in each case. In addition, the GI50 in [7], in [8], in test [9], in test [12], in test [13] and in [14] was > 100 µM (inactive) in each case. The GI50 in [15] and in [16] was > 100 µM (inactive) throughout.

Regarding `Cc1ccccc1NC(=O)C1C(=O)N(c2ccccc2C)C(=O)/C1=N\NC(N)=O` (centres undefined), the GI50 in test [1], in [2], in [4], in test [5], in [6] and in test [7] was > 100 µM (inactive) throughout. In addition, the GI50 in [9], in test [10], in test [12], in test [13], in [14] and in [15] was > 100 µM (inactive) in each case. Moreover, the GI50 in [16] was > 100 µM (inactive).

Consider `C(=N\CC/N=C/c1cccc2ccccc12)/c1cccc2ccccc12`, for which the GI50 in test [1] is > 100 µM (inactive); in test [2] it was > 100 µM (inactive); in test [3], 22.1 µM (inactive); in test [4] it was > 100 µM (inactive); in test [5], > 100 µM (inactive); in test [6], > 100 µM (inactive). The GI50 in test [7] is > 100 µM (inactive); in test [8] it was > 100 µM (inactive); in test [9], > 100 µM (inactive); in test [12] it was > 100 µM (inactive); in test [13] it was > 100 µM (inactive); in test [14], < 0.01 µM (active). Also, the GI50 in test [15] and in test [16] was > 100 µM (inactive) throughout.

As for `CCC(C(=O)O)c1ccc(OCc2ccccc2)cc1` (centres undefined), the GI50 in test [1], in test [2], in test [3], in test [4], in [5] and in [6] was > 100 µM (inactive) in each case. The GI50 in test [7], in test [8], in test [9], in [10], in test [11] and in test [12] was > 100 µM (inactive) in each case. The GI50 in test [14], in test [15] and in test [16] was > 100 µM (inactive) in each case.

For the compound `C=CCC1OC(C)(C)Oc2ccc(OCOCCOC)cc21` (centres undefined), the GI50 in test [1], in test [2], in test [3], in test [4], in test [5] and in [6] was > 100 µM (inactive) each time. For the same compound, the GI50 in test [7], in test [9], in [10], in test [11], in [12] and in test [13] was > 100 µM (inactive) each time. In addition, the GI50 in test [14], in test [15] and in test [16] was > 100 µM (inactive) each time.

Regarding `Cc1cc2ncn(-c3nc4ccccc4nc3C(C#N)S(C)(=O)=O)c2cc1C` (centres undefined), the GI50 is > 100 µM (inactive) in [1]; > 100 µM (inactive) in [2]; 0.946 µM (active) in [3]; > 100 µM (inactive) in test [4]; > 100 µM (inactive) in test [5]; > 100 µM (inactive) in test [6]. The GI50 in [7], in [8], in [9], in test [10], in test [11] and in [12] was > 100 µM (inactive) throughout. The GI50 in test [13] and in [16] was > 100 µM (inactive) each time.

Consider `CCN(CC)CCCCC1CCN(CC(=O)N2c3cc(Cl)ccc3NC(=O)CC2C)CC1` (centres undefined), for which the GI50 in [1], in test [2], in test [3], in test [5], in test [6] and in [7] was > 100 µM (inactive) each time. Besides, the GI50 was > 100 µM (inactive) in test [8]; > 100 µM (inactive) in [9]; > 100 µM (inactive) in test [10]; > 100 µM (inactive) in test [11]; 79.6 µM (inactive) in test [12]; > 100 µM (inactive) in [14]. Besides, the GI50 in [15] and in test [16] was > 100 µM (inactive) throughout.

For `CCOc1ccccc1NC(=O)C1=C(C)NC(C)=C(C(=O)Nc2ccccc2OCC)C1c1ccc([N+](=O)[O-])cc1`, the GI50 is > 100 µM (inactive) in [1]; > 100 µM (inactive) in test [2]; > 100 µM (inactive) in [3]; 44.3 µM (inactive) in test [4]; > 100 µM (inactive) in test [5]; 63.2 µM (inactive) in test [6]. The GI50 in test [7] is > 100 µM (inactive); in test [8], 10 µM (inactive); in test [9], 45.2 µM (inactive); in [10] it was > 100 µM (inactive); in [14] it was 10.5 µM (inactive); in test [15], 75.5 µM (inactive). For the same compound, the GI50 in test [16] was > 100 µM (inactive).

As to `CCCCNC(=O)C1C(=O)N(CCCC)C(=O)/C1=N\N` (centres undefined), the GI50 in test [1], in [2], in [3], in test [4], in [5] and in [6] was > 100 µM (inactive) throughout. The GI50 in test [7], in [8], in test [9], in [10], in test [11] and in test [12] was > 100 µM (inactive) throughout. Moreover, the GI50 in test [13], in test [14] and in test [15] was > 100 µM (inactive) each time.

For `O=C(Nc1cccc2c1[nH]c1c(-c3ccccc3)nccc12)c1ccccc1[N+](=O)[O-]`, the GI50 in test [1] was > 100 µM (inactive); in [2] it was 34.2 µM (inactive); in test [4], 54.7 µM (inactive); in test [5] it was 41.2 µM (inactive); in test [6], 18.6 µM (inactive); in test [7] it was 59.8 µM (inactive). Besides, the GI50 in test [8] was 30.7 µM (inactive); in test [9], 54.5 µM (inactive); in test [11] it was 24.5 µM (inactive); in test [12], 21.9 µM (inactive); in [13], 24.8 µM (inactive); in test [14], 2.81 µM (inactive). The GI50 was 8.71 µM (inactive) in [15] and 24.4 µM (inactive) in [16].
